Assays:
[1] = tested on: underarm odor, axillae skin of a panel of human subjects; assay: Deodorant value test (modified): underarm odor scored 0-5 by three assessors every 24 h; format: in vivo; conditions: Example 2; single solution on one axilla versus vehicle on the other; compared with 8.2% aluminum chlorohydrate and 0.4% chlorhexidine digluconate
Description: A test for the deodorant effects of monensin or resveratrol alone was first carried out. The positive controls were 8.2% aluminum chlorohydrate, a level that is used in most deodorant or antiperspirant products on the market and 0.4% chlorhexidine digluconate, a level that is usually used for bacterial killing. The negative control was a vehicle consisting of 60% ethanol and 40% water. Three experienced underarm odor assessors who are able to correctly rank the odor intensities based on the deodorant value test system U.S. Pat. No. 4,278,658) performed odor assessments. I)odorant assessment scores were recorded according to the inalodor category scale, when applied directly to the axillae skin of a panel of human subjects.
The test described in deodorant value test system has been modified by measuring odor intensity every 24 hours after treatment until odor intensity is detectable (score 1 or up) on a 0-5 score instead of just 24 hours after treatment.
In this test, twenty subjects selected by experienced odor assessors have an average odor score of 3.5 (range from score 3-5). To prevent any any-over effects from occurring, all of subjects have not used any underarm products before test for at least 10 days. […] At 24 hour intervals, each subject was evaluated for underarm odor by averaging the score of the three assessors until odor in test groups was detectable (score 1 or up). […]

apo D = conditions: cited from earlier work
androgen receptor = conditions: prostate cancer cells; cited from earlier work

Row | SMILES | effectiveness in preventing underarm odor (deodorant effect, FIG. 1) [1] | effect on secretion of apo D from cells (apo D) | effect on expression and function of the androgen receptor (androgen receptor)
1 | CC[C@@]1([C@@H]2O[C@@H]([C@H]3O[C@@](O)(CO)[C@H](C)C[C@@H]3C)C[C@@H]2C)CC[C@H]([C@]2(C)CC[C@]3(C[C@H](O)[C@@H](C)[C@@H]([C@@H](C)[C@@H](OC)[C@H](C)C(=O)O)O3)O2)O1 [monensin] | more effective in preventing underarm odor than the positive control products | decreases secretion of apo D from cells | –
2 | Oc1ccc(C=Cc2cc(O)cc(O)c2)cc1 [Resveratrol, resveratrol] | – | – | inhibit the expression and function of the androgen receptor

— patent US6426061B1, “Method and composition for preventing sweat-related odor” (priority 2001, dated 2002)
